According to ChEMBL document CHEMBL1156232, “Non-classical antifolates. Part 2: synthesis, biological evaluation, and molecular modeling study of some new 2,6-substituted-quinazolin-4-ones” (Bioorg Med Chem, 2010):
pIC50: −log10 of the molar value. In brackets after ≈: the same amount, converted by molar mass. Activity calls are given as the source filed them. The rule behind the calls is not given here.

How the values were obtained:
[1] = test system: Escherichia coli; test: Antibacterial activity against Escherichia coli at 200 ug/disk after 24 hrs by disk diffusion method; format: functional; settings: for zone of inhibition at 200 µg/disc: read-out: DIZ
[2] = test system: Staphylococcus aureus; test: Antibacterial activity against Staphylococcus aureus at 200 ug/disk after 24 hrs by disk diffusion method; format: functional
[3] = test system: Pseudomonas aeruginosa; test: Antibacterial activity against Pseudomonas aeruginosa at 200 ug/disk after 24 hrs by disk diffusion method; format: functional; settings: for zone of inhibition at 200 µg/disc: read-out: DIZ
[4] = test system: Micrococcus luteus; test: Antibacterial activity against Micrococcus luteus at 200 ug/disk after 24 hrs by disk diffusion method; format: functional
[5] = test system: Candida albicans; test: Antifungal activity against Candida albicans at 200 ug/disk after 48 hrs by disk diffusion method; format: functional, organism-based
[6] = test system: Bacillus subtilis; test: Antibacterial activity against Bacillus subtilis at 200 ug/disk after 24 hrs by disk diffusion method; format: functional
[7] = test system: Candida albicans; test: Antifungal activity against Candida albicans after 48 hrs by microdilution susceptibility method; format: functional, organism-based
[8] = biological target: T1, Dihydrofolate reductase (Bos taurus, UniProt P00376)
T1 sequence (P00376 whole entry): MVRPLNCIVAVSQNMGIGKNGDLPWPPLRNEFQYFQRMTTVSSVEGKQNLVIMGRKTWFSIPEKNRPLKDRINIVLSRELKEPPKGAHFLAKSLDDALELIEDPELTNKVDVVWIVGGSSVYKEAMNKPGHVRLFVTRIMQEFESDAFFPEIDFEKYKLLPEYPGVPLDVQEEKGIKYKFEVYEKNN
Description: Inhibition of bovine DHFR after 2 mins

[9] = biological target: T2, Dihydrofolate reductase (Homo sapiens, UniProt P00374)
T2 sequence (P00374 whole entry): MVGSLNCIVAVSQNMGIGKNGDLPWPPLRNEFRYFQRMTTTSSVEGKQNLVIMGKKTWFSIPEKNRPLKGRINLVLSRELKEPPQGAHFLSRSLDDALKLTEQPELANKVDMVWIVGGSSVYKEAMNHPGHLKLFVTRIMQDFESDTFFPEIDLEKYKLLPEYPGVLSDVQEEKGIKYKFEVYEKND
Description: Inhibition of human DHFR after 2 mins

[10] = test system: Escherichia coli; test: Antibacterial activity against Escherichia coli after 24 hrs by microdilution susceptibility method; format: functional

| Structure (SMILES) | diameter of the inhibition zone (DIZ) [1] | diameter of the inhibition zone (DIZ) [2] | diameter of the inhibition zone (DIZ) [3] | diameter of the inhibition zone (DIZ) [4] | Activity [5] | diameter of the inhibition zone (DIZ) [6] | Activity [7] | pIC50 [8] | zone of inhibition at 200 µg/disc [1] | zone of inhibition at 200 µg/disc [3] | zone of inhibition at 200 µg/disc ([6]; read-out: DIZ) | pIC50 [9] | MIC [10] | zone of inhibition at 200 µg/disc ([2]; read-out: DIZ) |
| --- | --- | --- | --- | --- | --- | --- | --- | --- | --- | --- | --- | --- | --- | --- |
| CSc1nc2ccc(N)cc2c(=O)n1Cc1ccccc1 | inactive | inactive | inactive | inactive | inactive | inactive | inactive | 5.00 |  |  |  |  |  |  |
| C=CCSc1nc2ccc(NC(=O)C=C)cc2c(=O)n1Cc1ccccc1 | inactive | inactive | inactive | inactive | inactive | inactive | inactive | 5.00 |  |  |  |  |  |  |
| CCOC(=O)CCSc1nc2ccc([N+](=O)[O-])cc2c(=O)n1Cc1ccccc1 |  | inactive |  | inactive | inactive |  | inactive | 4.60 | 16 mm | 16 mm | 14 mm |  |  |  |
| C=CCN(C)c1ccc2nc(SC)n(Cc3ccccc3)c(=O)c2c1 | inactive | inactive | inactive | inactive | inactive | inactive | inactive | 6.00 |  |  |  | 5.70 |  |  |
| C=CCN(CC=C)c1ccc2nc(SC)n(Cc3ccccc3)c(=O)c2c1 | inactive | inactive | inactive | inactive | inactive | inactive | inactive | 5.52 |  |  |  | 6.00 |  |  |
| CSc1nc2ccc([N+](=O)[O-])cc2c(=O)n1Cc1ccccc1 | inactive | inactive | inactive | inactive | inactive | inactive | inactive | 4.52 |  |  |  |  |  |  |
| C=CCn1c(SSc2nc(=O)c3cc([N+](=O)[O-])ccc3n2CC=C)nc(=O)c2cc([N+](=O)[O-])ccc21 | inactive | inactive | inactive | inactive | inactive | inactive | inactive | 5.00 |  |  |  |  |  |  |
| Nc1ccc2nc(SC/C=C/c3ccccc3)n(Cc3ccccc3)c(=O)c2c1 | inactive | inactive | inactive | inactive | inactive | inactive | inactive | 5.10 |  |  |  | 5.22 |  |  |
| Cc1ccc2nc(SCc3ccccc3)n(Cc3ccccc3)c(=O)c2c1 | inactive | inactive | inactive | inactive | inactive | inactive | inactive | 5.00 |  |  |  |  |  |  |
| Cc1ccc2nc(SC/C=C/c3ccccc3)n(Cc3ccccc3)c(=O)c2c1 | inactive | inactive | inactive | inactive | inactive | inactive | inactive | 6.30 |  |  |  | 6.00 |  |  |
| CCSc1nc2ccc(C)cc2c(=O)n1Cc1ccccc1 | inactive | inactive | inactive | inactive | inactive | inactive | inactive | 4.46 |  |  |  |  |  |  |
| CCSc1nc2ccc([N+](=O)[O-])cc2c(=O)n1Cc1ccccc1 |  | inactive |  | inactive | inactive | inactive | inactive | 5.00 | 20 mm | 15 mm |  |  | 8 µg/mL (≈ 23.4 µM) |  |
| CSc1nc2ccc(C)cc2c(=O)n1Cc1ccccc1 | inactive | inactive | inactive | inactive | inactive | inactive | inactive | 4.70 |  |  |  |  |  |  |
| C=CCSc1nc2ccc(C)cc2c(=O)n1Cc1ccccc1 | inactive | inactive | inactive | inactive | inactive | inactive | inactive | 5.70 |  |  |  | 5.40 |  |  |
| C=CCNc1ccc2nc(SCC=C)n(Cc3ccccc3)c(=O)c2c1 | inactive | inactive | inactive | inactive | inactive | inactive | inactive | 6.10 |  |  |  | 6.00 |  |  |
| C=CCSc1nc2ccc(N)cc2c(=O)n1Cc1ccccc1 | inactive | inactive | inactive | inactive | inactive | inactive | inactive | 5.10 |  |  |  | 5.30 |  |  |
| C=CCNc1ccc2nc(SC)n(Cc3ccccc3)c(=O)c2c1 |  | inactive | inactive | inactive | inactive | inactive | inactive | 6.22 | 17 mm |  |  | 6.10 |  |  |
| C=CCSc1nc2ccc(N(CC=C)CC=C)cc2c(=O)n1Cc1ccccc1 | inactive | inactive | inactive | inactive | inactive | inactive | inactive | 6.40 |  |  |  | 6.05 |  |  |
| C=CC(=O)Nc1ccc2nc(SC/C=C/c3ccccc3)n(Cc3ccccc3)c(=O)c2c1 | inactive |  | inactive | inactive | inactive | inactive | inactive | 6.00 |  |  |  | 5.70 |  | 15 mm |
| C=CCSc1nc2ccc([N+](=O)[O-])cc2c(=O)n1Cc1ccccc1 | inactive | inactive | inactive | inactive | inactive | inactive | inactive | 5.52 |  |  |  | 5.70 |  |  |
| C=CC(=O)Nc1ccc2nc(SC)n(Cc3ccccc3)c(=O)c2c1 | inactive | inactive | inactive | inactive | inactive | inactive | inactive | 4.30 |  |  |  |  |  |  |
| O=c1c2cc([N+](=O)[O-])ccc2nc(SCc2ccccc2)n1Cc1ccccc1 | inactive | inactive | inactive | inactive | inactive | inactive | inactive | 4.52 |  |  |  |  |  |  |
| CSc1nc2ccc(NC/C=C/c3ccccc3)cc2c(=O)n1Cc1ccccc1 |  | inactive | inactive | inactive | inactive | inactive | inactive | 6.30 | 15 mm |  |  | 5.70 |  |  |
